Test results: ChEMBL document CHEMBL1201862, “PubChem BioAssay data set” (2004)
Several values for one entry are separate records, joined by “and”; a condition that tells them apart may be missing. Equal entries are not always repeated.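 1) Cells in 96-well plates. 2) Compound, 48 h, 5 concentrations. 3) Linear interpolation between surrounding doses. 4) Unreached endpoint = highest concentration. Abbreviation: GI50, concentration required for 50% inhibition of growth.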 Activity calls are given as the source filed them. No stated cut-off is given here; in the data, active = GI50 up to about 1.1 µM and inactive = higher.

How the values were obtained:
Test in all cases: inhibition of tumour cell growth, NCI panel, 48 h
[1] = tested on: DLD-1
[2] = tested on: DMS-273
[3] = tested on: RXF 631
[4] = tested on: XF498
[5] = tested on: KM-20L2
[6] = tested on: M19-MEL
[7] = tested on: LXFL 529
[8] = tested on: HOP-18
[9] = tested on: SNB-78

With Cc1nc2ccncc2[nH]1 the GI50 [1] was > 100 µM (inactive), the GI50 [2] was > 100 µM (inactive) and the GI50 [3] was > 100 µM (inactive). The GI50 [4] was 58.6 µM (inactive), the GI50 [5] was > 100 µM (inactive) and the GI50 [6] was > 100 µM (inactive). The GI50 [7] was > 100 µM (inactive).

For COC1C(CN[N+](=O)CC2OC3OC(C)(C)OC3C2OC)OC2OC(C)(C)OC21 (stereo unspecified), the GI50 [1] was > 100 µM (inactive), the GI50 [2] was > 100 µM (inactive) and the GI50 [3] was > 100 µM (inactive). The GI50 [8] was > 100 µM (inactive), the GI50 [6] was > 100 µM (inactive) and the GI50 [9] was > 100 µM (inactive).

In the case of N#Cc1cccc(N2C(=O)c3ccc(C(=O)c4ccc5c(c4)C(=O)N(c4cccc(C#N)c4)C5=O)cc3C2=O)c1, the GI50 [1] is reported as > 100 µM (inactive), the GI50 [2] is reported as > 100 µM (inactive) and the GI50 [4] is reported as > 100 µM (inactive). For the same molecule, the GI50 [5] was > 100 µM (inactive), the GI50 [8] was > 100 µM (inactive) and the GI50 [6] was > 100 µM (inactive). The GI50 [9] was > 100 µM (inactive) and the GI50 [7] was > 100 µM (inactive).

For CN(C)[C@@H]1C(O)=C(C(N)=O)C(=O)[C@@]2(O)C(O)=C3C(=O)c4c(O)cccc4C[C@H]3C[C@@H]12, the GI50 [1] was 2.66 µM (inactive), the GI50 [2] was 2.17 µM (inactive) and the GI50 [5] was 2.19 µM (inactive). The GI50 [8] was 1.79 µM (inactive), the GI50 [6] was 1.68 µM (inactive) and the GI50 [7] was 1.92 µM (inactive).

O=C(Cc1ccccc1)NN1C(=O)C(Cl)C1c1ccc([N+](=O)[O-])cc1 (stereo unspecified) was tested, and the GI50 [1] was > 100 µM (inactive), the GI50 [2] was > 100 µM (inactive) and the GI50 [4] was > 100 µM (inactive). For the same molecule, the GI50 [5] was > 100 µM (inactive), the GI50 [8] was > 100 µM (inactive) and the GI50 [6] was > 100 µM (inactive). The GI50 [9] was 45.9 µM (inactive) and the GI50 [7] was 95.9 µM (inactive).

With NC(CCCC(N)P(=O)(O)O)P(=O)(O)O (stereo unspecified) the GI50 [1] was > 100 µM (inactive), the GI50 [2] was > 100 µM (inactive) and the GI50 [3] was > 100 µM (inactive). For the same molecule, the GI50 [8] was > 100 µM (inactive), the GI50 [6] was > 100 µM (inactive) and the GI50 [9] was > 100 µM (inactive). For the same molecule, the GI50 [7] was > 100 µM (inactive).

In the case of COC(=O)NN1C(C)=C(C(=O)OC)C2(CCOC2=O)C1(C)O (stereo unspecified), the GI50 [1] is reported as > 100 µM (inactive), the GI50 [2] is reported as > 100 µM (inactive) and the GI50 [3] is reported as > 100 µM (inactive). For the same molecule, the GI50 [4] was > 100 µM (inactive), the GI50 [5] was > 100 µM (inactive) and the GI50 [8] was > 100 µM (inactive). For the same molecule, the GI50 [9] was > 100 µM (inactive) and the GI50 [7] was > 100 µM (inactive).

With COC(=O)CCC(NC(=S)N/N=C/c1ccccn1)C(=O)OC (stereo unspecified) the GI50 [1] was > 100 µM (inactive), the GI50 [3] was > 100 µM (inactive) and the GI50 [4] was > 100 µM (inactive). The GI50 [5] was > 100 µM (inactive), the GI50 [8] was > 100 µM (inactive) and the GI50 [6] was > 100 µM (inactive). For the same molecule, the GI50 [9] was > 100 µM (inactive) and the GI50 [7] was > 100 µM (inactive).

CC1C[C@@H]2C(=O)NC(=O)[C@@H]2c2c1c1ccccc1n2C (stereo partly specified) was tested, and the GI50 [1] was > 100 µM (inactive), the GI50 [2] was > 100 µM (inactive) and the GI50 [3] was > 100 µM (inactive). For the same molecule, the GI50 [4] was > 100 µM (inactive), the GI50 [5] was > 100 µM (inactive) and the GI50 [6] was > 100 µM (inactive). For the same molecule, the GI50 [9] was > 100 µM (inactive) and the GI50 [7] was > 100 µM (inactive).

COC(=O)c1ccc(CS(=O)(=O)c2ccccc2)cc1 was tested, and the GI50 [1] was 91.8 µM (inactive), the GI50 [2] was 45.4 µM (inactive) and the GI50 [3] was > 100 µM (inactive). For the same molecule, the GI50 [4] was > 100 µM (inactive), the GI50 [5] was 61.5 µM (inactive) and the GI50 [8] was > 100 µM (inactive). The GI50 [6] was 45.4 µM (inactive), the GI50 [9] was > 100 µM (inactive) and the GI50 [7] was > 100 µM (inactive).

O=C1CC(O)(c2ccccc2)C(c2ccccc2)=C1c1ccccc1 (stereo unspecified) was tested, and the GI50 [1] was 44.2 µM (inactive), the GI50 [2] was 34.6 µM (inactive) and the GI50 [4] was 24.4 µM (inactive). For the same molecule, the GI50 [5] was 41.8 µM (inactive), the GI50 [6] was 29.6 µM (inactive) and the GI50 [9] was 73.6 µM (inactive). The GI50 [7] was 35.3 µM (inactive).

In the case of O=c1c(Cl)c(Cl)cnn1-c1ccccc1, the GI50 [1] is reported as 1.44 µM (inactive) and 2.35 µM (inactive), the GI50 [4] is reported as 2.46 µM (inactive) and the GI50 [8] is reported as 8.53 µM (inactive) and 5.19 µM (inactive). The GI50 [6] was 3.05 µM (inactive) and 3.13 µM (inactive), the GI50 [9] was 7.33 µM (inactive) and the GI50 [7] was 1.67 µM (inactive) and 1.71 µM (inactive).

For Nc1nnc(N)n1N, the GI50 [1] was > 100 µM (inactive), the GI50 [2] was > 100 µM (inactive) and the GI50 [3] was > 100 µM (inactive). The GI50 [4] was 28.8 µM (inactive), the GI50 [6] was > 100 µM (inactive) and the GI50 [9] was > 100 µM (inactive). The GI50 [7] was > 100 µM (inactive).

For Cn1cnc([N+](=O)[O-])c1Sc1nnc(-c2cccnc2)n1C, the GI50 [1] was 18.8 µM (inactive), the GI50 [2] was 80.2 µM (inactive) and the GI50 [4] was 20.4 µM (inactive). For the same molecule, the GI50 [5] was 33.9 µM (inactive), the GI50 [8] was 14.6 µM (inactive) and the GI50 [6] was 19.1 µM (inactive). The GI50 [9] was 21.4 µM (inactive) and the GI50 [7] was 12 µM (inactive).

For CCN(CC)c1ccc2cc3ccc(N(CC)CC)cc3[o+]c2c1, the GI50 [1] was 1.39 µM (inactive), the GI50 [2] was 1.12 µM (active) and the GI50 [4] was 1.23 µM (inactive). The GI50 [5] was 1.82 µM (inactive), the GI50 [9] was 2.43 µM (inactive) and the GI50 [7] was 0.457 µM (active).

COc1ccc(/C(=N/NC(N)=O)C2(O)C(=O)Nc3ccc([N+](=O)[O-])cc32)cc1 (stereo unspecified) was tested, and the GI50 [1] was 21.3 µM (inactive), the GI50 [2] was 18.3 µM (inactive) and the GI50 [4] was 16.5 µM (inactive). For the same molecule, the GI50 [5] was 22.3 µM (inactive), the GI50 [6] was 20.7 µM (inactive) and the GI50 [9] was 17.8 µM (inactive). For the same molecule, the GI50 [7] was 18.3 µM (inactive).
